From patent US20210220358A1, “1,3-THIAZOL-2-YL SUBSTITUTED BENZAMIDES FOR THE TREATMENT OF DISEASES ASSOCIATED WITH NERVE FIBER SENSITIZATION” (Bayer Aktiengesellschaft, priority 2018, published 2021)

Assays:
human vagus nerve = experiment: Vagal depolarization - inhibition of human vagus nerve by P2X3 inhibitors (grease-gap recording); conditions: TRPV4 agonist GSK 1016790A 300 nM; FIG. 1
Procedure: The aim of the study is to test the effects of P2X3 antagonists on the deoplarisation of human vagus nerve as an ex vivo measure of blocking Chronic Cough. Human vagal tissue was dissected from 4 human lungs (obtained from healthy tissue donors).
The tissue was assayed using an O2/CO2 gassed, grease-gap recording system as described in Birrell et al, Am J Respir Crit Care Med. 2009, 180:1042-1047; Bonvini et al, J Allergy Clin Immunol. 2016, 138 (1), 249-261, Bonvini et al, Naunyn Schmiedebergs Arch Pharmacol. 2015, 388: 401-420. Briefly, after the tissue had stabilised it was exposed to two 2 minute challenges with a sub-maximal concentration of agonists (TRPV4 agonist GSK 1016790A, 300 nM). Sub-maximal concentration means a concentration where no full efficacy is observed, i.e. stimulation with the agonist within the dynamic range. Typical values are 80% of the maximal efficacy that can be achieved. The tissue was then exposed to vehicle (0.1 Vol % DMSO solution in Krebs buffer) or test compound for 10 minutes and then the tissue was re-challenged with agonist in the presence of the test compound. […] Only one experiment was performed on each piece of tissue and n=4 means tissue from 4 different lungs[…]. The data was electrophysiologically recorded as actual depolarisation levels and presented as mean percentage inhibition. Results can be found in FIG. 1.

treated subjects = conditions: Clinical Phase II trials (Abdulqawi et al 2015; Strand et al 2015); cited from earlier work
[1] = tested on: human P2X3 and human P2X2/3 receptors; conditions: cited from earlier work
healthy young males [2] = experiment: Taste related adverse events recorded during clinical studies; assay type: in vivo, humans
Source text: Taste related adverse events describe adverse events that lead to a change in taste perception, e.g. dysgeusia (distortion of taste), hypogeusia (decrease in taste sensitivity) and ageusia (complete lack of taste).
Adverse events (AE) in the context of a clinical study are defined as any untoward medical occurrence (i.e. any unfavorable and unintended sign including abnormal laboratory findings, symptom or disease) in a patient or clinical investigation subject after providing written informed consent for participation in the study. Therefore, an AE may or may not be temporally or causally associated with the use of a medicinal (investigational) product.
3-(5-Methyl-1,3-thiazol-2-yl)-5-[(3R)-tetrahydrofuran-3-yloxy]-N-{(1R)-1-[2-(trifluoromethyl)pyrimidin-5-yl]ethyl}benzamide has been administered as single oral dose with increasing amounts starting from 10 mg per subject to 800 mg per subject in comparison with placebo to healthy young males.
(§1) In the first part of the above-described protocol, 3-(5-Methyl-1,3-thiazol-2-yl)-5-[(3R)-tetrahydrofuran-3-yloxy]-N-{(1R)-1-[2-(trifluoromethyl)pyrimidin-5-yl]ethyl}-benzamide has been administered as multiple oral dose with increasing amounts starting from 10 mg per subject twice daily to 750 mg per subject twice daily in comparison with placebo to healthy young males. […] The treatment duration was 14 days.
(§2) The treatment duration was 14 days.

healthy young males [3] = experiment: Taste assessment test (Taste Strips) during clinical studies; assay type: in vivo, humans
Source text: The Taste Strips (Burghart Messtechnik GmbH) are a validated test method for ascertaining tasting performance (ISO certified). The following concentrations have been applied on the taste strips: sweet: 0.4, 0.2, 0.1, 0.05 g/ml sucrose; sour: 0.3, 0.165, 0.09, 0.05 g/ml citric acid; salty: 0.25, 0.1, 0.04, 0.016 g/ml sodium chloride; bitter: 0.006, 0.0024, 0.0009, 0.0004 g/ml quinine hydrochloride. The Strips were used to check the tasting performance of the whole mouth by placing a Taste Strip on the tongue and closing the mouth (the subject can move the tongue). […] Afterwards and between the 4 taste strips the mouth was rinsed with a sip of tap water according to individual needs. […] The taste strips were presented in a pseudo-randomized order (increasing concentration for each quality) and placed on the tongue. The subject's task was to choose one of five possible answers on a form (sweet, sour, salty, bitter, no taste). Before and after each testing, the mouth was rinsed with a sip of tap water according to individual needs. The lowest concentrations of each taste quality should have been identified by half of the healthy subjects only; the highest concentration should have been identified by approximately 100% of the subjects.
The taste strips were tested under blinded conditions to the subject. The number of correctly identified taste strips per subjects was counted with the maximum number achievable being 18 points (4 concentration/taste quality plus to blank paper strips).

healthy young males [4] = experiment: Adverse events (side effect profile) in multiple dose study; assay type: in vivo, humans
Procedure: (§3) In a first part of a two-part, double-blind, placebo-controlled, randomized, parallel-group study safety and tolerability of ascending repeated oral doses of the drug to be tested are assessed in 47 healthy male volunteers, followed by a second two-way crossover administration of four different doses in 40 patients with refractory chronic cough to assess safety, tolerability and efficacy for proof of concept.
as §1
as §3, with “study, the” for “study”, “36” for “47”, “second part with a” for “second”, “in” for “in 40”
as §2

[5] = multiple oral dose 10 mg to 750 mg twice daily, 14 days

Structure (SMILES) | effect size / efficacy in blocking vagus nerve depolarization, compared between compounds (human vagus nerve) | taste disturbances in treated subjects (treated subjects) | selectivity P2X3 homomer versus P2X2/3 [1] | taste AE duration (healthy young males [2]; 1 subject treated with 200 mg twice daily, on day 11) [h] | influence on perception of taste based on spontaneously reported adverse events (healthy young males [2]; [5]) | course of change in taste perception (healthy young males [2]; one subject treated with 200 mg twice daily) | taste AE duration (healthy young males [2]; one subject treated with 750 mg twice daily, on day 3) [h] | taste related adverse events (healthy young males [2]; single oral dose, 10 mg to 800 mg per subject, versus placebo) | effects on taste perception based on the taste assessment test (healthy young males [3]; [5]) | changes in taste scores under treatment (healthy young males [3]; single oral dose 10 mg to 800 mg) | effects on taste perception based on the taste assessment test (healthy young males [3]; single oral dose 10 mg to 800 mg, tests at baseline, 3 hrs and 6 days after drug administration) | nausea (healthy young males [4]; multiple dose study, 50 mg dose) | adverse events physical dependency, increased heart rate, xerostomia, constipation, drowsiness and sedation (healthy young males [4]; [5])
COc1cc(C(C)C)c(Oc2cnc(N)nc2N)cc1S(N)(=O)=O [AF-219, 5-(2,4-diamino-pyrimidin-5-yloxy)-4-isopropyl-2-methoxy-benzenesulfonamide] | the effect size observed was the same | leads to taste disturbances in treated subjects | P2X3 and P2X2/3 non-selective | – | – | – | – | – | – | – | – | – | –
Cc1cnc(-c2cc(O[C@@H]3CCOC3)cc(C(=O)N[C@H](C)c3cnc(C(F)(F)F)nc3)c2)s1 [3-(5-methyl-1,3-thiazol-2-yl)-5-[(3R)-tetrahydrofuran-3-yloxy]-N-{(1R)-1-[2-(trifluoromethyl)pyrimidin-5-yl]ethyl}benzamide] | – | – | – | 2 | in few subjects only | repeatedly occurring during continued treatment starting on treatment day 4 and lasting until 5 days after end of treatment | 0.5 | No taste related adverse were observed | no relevant effects on taste perception (No relevant effects on taste perception in the context of the present invention mean that no effect on taste perception has been observed in at least 80% of subjects under treatment according to the above-described protocol over a period of 14 days) | no significant or relevant changes in taste scores were observed | no relevant effects on taste perception were observed | one case of nausea | no such adverse events
